According to patent publication EP0302423A2, “1-Phenyl-3-(1-piperazinyl)-1h-indazoles, a process and intermediates for their preparation, and the use thereof as medicaments” (HOECHST-ROUSSEL PHARMACEUTICALS INCORPORATED, priority 1987, dated 1989):
Structures can show the parent of a compound that is named as a salt. Where two headings read alike, the source gives them in different places.

Assays:
Type in all cases: in vivo
mice [1] = assay: tetrabenazine induced ptosis assay in mice (antidepressant activity); conditions: for ED50: Mus musculus, ip, i.p. dose effecting calculated 50% inhibition of tetrabenazine-induced ptosis in mice, read-out: ANTI-DEPRESSANT ACTIVITY (% Inhibition of Ptosis) ED50 (mg/kg,i.p.)
Protocol: In this procedure, male mice (Charles River, CD-1), weighing about 20 to 39 g, are used in test groups of five animals. Test compounds are dissolved, or suspended with 1 drop of Tween-80, in distilled water and administered to the animals in volumes of 10 cc per kg of body weight. […] Tetrabenazine solution and the solvent used to dissolve, or suspend, the test compounds are administered by the same route and at the same intervals as the test compounds to a control group. […] The total score for each group of 5 animals will therefore vary from 0 to 20; these scores are used as the indications of the activity of the test compound. The vehicle-control group score is used as a determinate of the validity of each test.

mice [2] = assay: phenyl-p-benzoquinone writhing assay in mice (analgesia); conditions: Mus musculus, sc
male mouse = assay: supramaximal electroshock (SES) assay (anticonvulsant activity); conditions: for ED50: ip, read-out: ANTICONVULSANT ACTIVITY (% Inhibition of Convulsion) ED50 (mg/kg,i.p.)
[3] = calculated s.c. dose effecting approximately 50% inhibition of writhing in mice, at peak time, read-out: ANALGESIC ACTIVITY (% Inhibition of Writhing) ED50
[4] = male mouse, at peak activity time, protection against extensor tonus
[5] = read-out: ANALGESIC ACTIVITY (% Inhibition of Writhing) ED50 (mg/kg)

For `Fc1ccc(-n2nc(N3CCNCC3)c3ccccc32)cc1` [1-(4-Fluorophenyl)-3-(1-piperazinyl)-1H-indazole], which ED50 (mice [1]) is on record?
Its ED50 is 17.3 mg/kg.

Which results are given for `CN1CCN(c2nn(-c3ccc(F)cc3)c3ccccc23)CC1.O=C(O)/C=C/C(=O)O` [1-(4-Fluorophenyl)-3-(4-methyl-1-piperazinyl)-1H-indazole fumarate]?
% inhibition of ptosis at indicated screening dosage (i.p.) (mice [1]; 20 mg/kg, i.p., mice): 65% @ 20 mg/kg*; ED50 (mice [2]; [3]): 0.8 mg/kg; ED50 (male mouse; [4]): 12.9 mg/kg

With `c1ccc(-n2nc(N3CCNCC3)c3ccccc32)cc1` [1-Phenyl-3-(1-piperazinyl)-1H-indazole hydrocloride] as the molecule, how does the ED50 (mice [1]) read?
The ED50 was 25.4 mg/kg.

What about the ED50 (mice [2]; [3]) of the same molecule?
The ED50 was 0.7 mg/kg.

And the “% inhibition of convulsions at indicated dosage” value (male mouse; 60 mg/kg, i.p., male mouse)?
The value was 100% @ 60 mg/kg*.

Which results are given for `CN1CCN(c2nn(-c3ccccc3)c3ccccc23)CC1.Cl` [1-Phenyl-3-(4-methyl-1-piperazinyl)-1H-indazole hydrochloride]?
ED50 (mice [1]): 11.1 mg/kg; ED50 (mice [2]; [3]): 1.6 mg/kg; ED50 (male mouse; [4]): 14.6 mg/kg

How did the ED50 (male mouse; [4]) turn out when `CCN1CCN(c2nn(-c3ccc(C(F)(F)F)cc3)c3ccccc23)CC1` [3-(4-Ethyl-1-piperazinyl)-1-[4-trifluoromethyl)phenyl]-1H-indazole fumarate] was run?
The ED50 was 8.2 mg/kg.

`CN1CCN(c2nn(-c3ccc(C(F)(F)F)cc3)c3ccccc23)CC1.O=C(O)/C=C/C(=O)O` [3-(4-Methyl-1-piperazinyl)-1-[4-(trifluoromethyl)phenyl]-1H-indazole fumarate] was tested. Which ED50 (male mouse; [4]) did it give?
Its ED50 is 27 mg/kg.

With `CP(C)(=O)CN1CCN(c2nn(-c3ccccc3)c3ccccc23)CC1` [3-[4-(Dimethylphosphinylmethyl)-1-piperazinyl]-1-phenyl-1H-indazole] as the molecule, how does the ED50 (male mouse; [4]) read?
Its ED50 is 24.3 mg/kg.

With `NC(=O)N1CCN(c2nn(-c3ccccc3Cl)c3ccccc23)CC1` [4-[1-(2-chlorophenyl)-1H-indazol-3-yl]-1-piperazine carboxamide hemifumarate] as the molecule, how does the ED50 (male mouse; [4]) read?
The ED50 was 38.9 mg/kg.

Which ED50 (male mouse; [4]) does the source give for `NC(=O)N1CCN(c2nn(-c3ccc(F)cc3)c3ccccc23)CC1` [4-[1-(4-Fluorophenyl)-1H-indazol-3-yl]-1-piperazine carboxamide] here?
Its ED50 is 22.7 mg/kg.

How did the ED50 (mice [1]) turn out when `CN(C)CCC=C1c2ccccc2CCc2ccccc21` [amitriptyline, reference compound] was run?
Its ED50 is 1.5 mg/kg.

With `CN(C)CCCN1c2ccccc2CCc2ccccc21` [imipramine, reference compound] as the molecule, how does the ED50 (mice [1]; read-out: ANTI-[…] (% Inhibition of Ptosis) ED50 (mg/kg,i.p.)) read?
The ED50 was 1.3 mg/kg.

`CC(C)=CCN1CCC2(C)c3cc(O)ccc3CC1C2C` (centres unmarked) [pentazocine, reference compound] was tested. Which ED50 (mice [2]; [5]) did it give?
The ED50 was 1.3 mg/kg.

For `CCC1(c2ccccc2)C(=O)NC(=O)NC1=O` [phenobarbitol, reference compound], which ED50 (male mouse; Mus musculus) is on record?
Its ED50 is 8.4 mg/kg.

How did the ED50 (mice [2]; [5]) turn out when `CCC(=O)O[C@](Cc1ccccc1)(c1ccccc1)[C@H](C)CN(C)C` [propoxyphene, reference compound] was run?
Its ED50 is 3.9 mg/kg.
